These results are taken from patent US20090054392A1, “NAPHTHYLPYRIMIDINE, NAPHTHYLPYRAZINE AND NAPHTHYLPYRIDAZINE ANALOGS AND THEIR USE AS AGONISTS OF THE WNT-BETA-CATENIN CELLULAR MESSAGING SYSTEM” (Wyeth, priority 2007, published 2009).

By EC50 is commonly meant the concentration giving half of the maximal effect. Higher therefore signals a less potent agent.

Like-named read-outs stand apart in the source and are kept apart here.

The data set deals with Dkk1-LRP5-TCF-Luciferase. Kind of data set: Functional Dkk1-LRP5-TCF-Luciferase Assay in U2OS Cells. The following applies: for A = MAX FOLD Induction/DMSO CONTROL: maximum fold induction over DMSO control; for fold induction at 2 µM: read-out: B = TCF ACTIVITY/DMSO CONTROL Fold induction @ 2.0 uM, 2.0 uM compound; for fold induction at 20 µM: read-out: C = TCF ACTIVITY/DMSO CONTROL Fold induction @ 20.0 uM, 20.0 uM compound.

For `N[C@@H]1[C@H]2CN(c3nccc(-c4ccc5ccccc5c4)n3)C[C@@H]12`, the half-maximal effective concentration (EC50) was 4 µM and the “A = MAX FOLD Induction/DMSO CONTROL” value is 5.480 fold. Moreover, where the note is “2.0 uM compound”, the “B = TCF ACTIVITY/DMSO CONTROL Fold induction @ 2.0 uM” value is given as 1.920 fold.

For the compound `CCN(CC)C(=O)N(C)CCN(C)[C@@H]1CCN(c2nccc(-c3ccc4ccccc4c3)n2)C1` [1,1-diethyl-3-methyl-3-[2-(methyl{(3R)-1-[4-(2-naphthyl)pyrimidin-2-yl]pyrrolidin-3-yl}amino)ethyl]urea], the fold induction at 2 µM (Homo sapiens, U2OS) was 1.93.

Turning to `COc1ccccc1-c1ccc2cc(-c3ccnc(N4CCC(CN)CC4)n3)ccc2c1` [1-(1-{4-[6-(2-methoxyphenyl)-2-naphthyl]pyrimidin-2-yl}piperidin-4-yl)methanamine], the fold induction at 2 µM (Homo sapiens, U2OS) was 1.88.

For the compound `NCC1CCN(c2nccc(-c3ccc4cc(-c5cccs5)ccc4c3)n2)CC1` [1-(1-{4-[6-(2-thienyl)-2-naphthyl]pyrimidin-2-yl}piperidin-4-yl)methanamine], where the note is “Homo sapiens, U2OS”, the fold induction at 2 µM amounted to 1.21 and the fold induction at 20 µM was found to be 0.03.

As to `COc1ccc(-c2ccc3cc(-c4ccnc(N5CCC(CN)CC5)n4)ccc3c2)cc1` [1-(1-{4-[6-(4-methoxyphenyl)-2-naphthyl]pyrimidin-2-yl}piperidin-4-yl)methanamine], the fold induction at 20 µM (Homo sapiens, U2OS) amounted to 1.9.

With `NCC1CCN(c2nccc(-c3ccc4cc(CN5CCOCC5)ccc4c3)n2)CC1` [1-(1-{4-[6-(morpholin-4-ylmethyl)-2-naphthyl]pyrimidin-2-yl}piperidin-4-yl)methanamine], under “Homo sapiens, U2OS”, the fold induction at 2 µM amounted to 1.1.

Turning to `NCC1CCN(c2nccc(-c3ccc4cc(CN5CCCCC5)ccc4c3)n2)CC1` [1-(1-{4-[6-(piperidin-1-ylmethyl)-2-naphthyl]pyrimidin-2-yl}piperidin-4-yl)methanamine], the fold induction at 2 µM (Homo sapiens, U2OS) was 1.4.

On to `NCC1CCN(C(=O)c2nccc(-c3ccc4ccccc4c3)n2)CC1` [1-(1-{[4-(2-naphthyl)pyrimidin-2-yl]carbonyl}piperidin-4-yl)methanamine], for which the “A = MAX FOLD Induction/DMSO CONTROL” value is on record as 1.380 fold. For the same compound, under “Homo sapiens, U2OS”, the fold induction at 2 µM came out at 0.46 and the fold induction at 20 µM amounted to 1.42.

Consider `NCC1CCN(Cc2nccc(-c3ccc4ccccc4c3)n2)CC1` [1-(1-{[4-(2-naphthyl)pyrimidin-2-yl]methyl}piperidin-4-yl)methanamine], for which, for the setting “Homo sapiens, U2OS”, the fold induction at 2 µM was found to be 1.41 and the fold induction at 20 µM was determined as 1.77.

Regarding `CS(=O)(=O)N1CCCN(c2nccc(-c3ccc4ccccc4c3)n2)CC1` [1-(methylsulfonyl)-4-[4-(2-naphthyl)pyrimidin-2-yl]-1,4-diazepane], the “A = MAX FOLD Induction/DMSO CONTROL” value is on record as 1.510 fold. Besides, under “Homo sapiens, U2OS”, the response was half-maximal at 5.61 µM (EC50) and the fold induction at 20 µM worked out at 1.59.

On to `NC[C@H]1CC[C@H](Oc2nccc(-c3ccc4ccccc4c3)n2)CC1` [1-(trans-4-{[4-(2-naphthyl)pyrimidin-2-yl]oxy}cyclohexyl)methanamine], for which a half-maximal effect (Homo sapiens, U2OS) (EC50) was put at 0.46 µM.

For `c1ccc2cc(-c3ccnc(N4CCC(CN5CCCCCC5)CC4)n3)ccc2c1` [1-({1-[4-(2-naphthyl)pyrimidin-2-yl]piperidin-4-yl}methyl)azepane], the fold induction at 2 µM (Homo sapiens, U2OS) came out at 1.45.

For the compound `O=C1CCCCN1CC1CCN(c2nccc(-c3ccc4ccccc4c3)n2)CC1` [1-({1-[4-(2-naphthyl)pyrimidin-2-yl]piperidin-4-yl}methyl)piperidin-2-one], under “Homo sapiens, U2OS”, the fold induction at 2 µM stood at 1.55 and the fold induction at 20 µM was found to be 0.73.

As for `O=C1CCCN1CC1CCN(c2nccc(-c3ccc4ccccc4c3)n2)CC1` [1-({1-[4-(2-naphthyl)pyrimidin-2-yl]piperidin-4-yl}methyl)pyrrolidin-2-one], under “Homo sapiens, U2OS”, the fold induction at 2 µM came to 1.33 and the fold induction at 20 µM is 0.81.

Consider `c1ccc2cc(-c3ccnc(N4CCC(CN5CCCCCC5)C4)n3)ccc2c1` (centres unmarked) [1-({1-[4-(2-naphthyl)pyrimidin-2-yl]pyrrolidin-3-yl}methyl)azepane], for which the “A = MAX FOLD Induction/DMSO CONTROL” value is 2.260 fold. The fold induction at 2 µM (Homo sapiens, U2OS) is 2.33.

As for `OC1CCN(CC2CCN(c3nccc(-c4ccc5ccccc5c4)n3)C2)CC1` (centres unmarked) [1-({1-[4-(2-naphthyl)pyrimidin-2-yl]pyrrolidin-3-yl}methyl)piperidin-4-ol], the “A = MAX FOLD Induction/DMSO CONTROL” value is 2.680 fold. Also, under “Homo sapiens, U2OS”, the half-maximal effective concentration (EC50) turned out to be 5.53 µM, the fold induction at 2 µM was found to be 3.52 and the fold induction at 20 µM amounted to 0.1.

For the compound `O=C1CCCCN1C[C@@H]1CCN(c2nccc(-c3ccc4ccccc4c3)n2)C1` [1-({(3R)-1-[4-(2-naphthyl)pyrimidin-2-yl]pyrrolidin-3-yl}methyl)piperidin-2-one], for the setting “Homo sapiens, U2OS”, it took 6.85 µM to reach a half-maximal effect (EC50), the fold induction at 2 µM worked out at 1.14 and the fold induction at 20 µM came to 2.33.

As for `O=C1CCCCN1C[C@H]1CCN(c2nccc(-c3ccc4ccccc4c3)n2)C1` [1-({(3S)-1-[4-(2-naphthyl)pyrimidin-2-yl]pyrrolidin-3-yl}methyl)piperidin-2-one], the “A = MAX FOLD Induction/DMSO CONTROL” value worked out at 2.000 fold. For the same compound, under “Homo sapiens, U2OS”, the fold induction at 2 µM worked out at 1.07 and the fold induction at 20 µM came to 2.45.

With `c1ccc2cc(-c3ccnc(N4CCCNCC4)n3)ccc2c1` [1-[4-(2-naphthyl)pyrimidin-2-yl]-1,4-diazepane], under “Homo sapiens, U2OS”, the fold induction at 2 µM was determined as 1.36 and the fold induction at 20 µM was found to be 0.85.

With `O=[N+]([O-])CC1(O)CCN(c2nccc(-c3ccc4ccccc4c3)n2)CC1` [1-[4-(2-naphthyl)pyrimidin-2-yl]-4-(nitromethyl)piperidin-4-ol], where the note is “Homo sapiens, U2OS”, the fold induction at 2 µM turned out to be 1.19 and the fold induction at 20 µM turned out to be 1.49.

Regarding `O=C(N1CCCN(c2nccc(-c3ccc4ccccc4c3)n2)CC1)C(F)(F)F` [1-[4-(2-naphthyl)pyrimidin-2-yl]-4-(trifluoroacetyl)-1,4-diazepane], for the setting “Homo sapiens, U2OS”, the fold induction at 20 µM is 1.24.

Regarding `CCC(=O)N1CCCN(c2nccc(-c3ccc4ccccc4c3)n2)CC1` [1-[4-(2-naphthyl)pyrimidin-2-yl]-4-propionyl-1,4-diazepane], the “A = MAX FOLD Induction/DMSO CONTROL” value was determined as 2.260 fold. Also, under “Homo sapiens, U2OS”, the midpoint of the response, the EC50, lay at 28.5 µM and the fold induction at 20 µM worked out at 2.23.

As for `NC1CCCN(c2nccc(-c3ccc4ccccc4c3)n2)CC1` (centres unmarked) [1-[4-(2-naphthyl)pyrimidin-2-yl]azepan-4-amine], the fold induction at 2 µM (Homo sapiens, U2OS) was determined as 1.95.

Turning to `c1ccc2cc(-c3ccnc(N4CCCCCC4)n3)ccc2c1` [1-[4-(2-naphthyl)pyrimidin-2-yl]azepane], the fold induction at 2 µM (Homo sapiens, U2OS) turned out to be 1.54.

Consider `NC1CCN(c2nccc(-c3ccc4ccccc4c3)n2)CC1` [1-[4-(2-naphthyl)pyrimidin-2-yl]piperidin-4-amine], for which the “A = MAX FOLD Induction/DMSO CONTROL” value stood at 1.580 fold. Where the note is “Homo sapiens, U2OS”, the EC50 was found to be 0.97 µM and the fold induction at 2 µM was found to be 2.11.

`OC1CCN(c2nccc(-c3ccc4ccccc4c3)n2)CC1` [1-[4-(2-naphthyl)pyrimidin-2-yl]piperidin-4-ol]: the “A = MAX FOLD Induction/DMSO CONTROL” value is 2.224 fold. Further, for the setting “Homo sapiens, U2OS”, the 50% effective concentration (EC50) amounted to 1.28 µM, the fold induction at 2 µM was 1.35 and the fold induction at 20 µM amounted to 0.28.

Take `O=C1CCN(c2nccc(-c3ccc4ccccc4c3)n2)CC1` [1-[4-(2-naphthyl)pyrimidin-2-yl]piperidin-4-one]: under “Homo sapiens, U2OS”, the fold induction at 2 µM stood at 1.43 and the fold induction at 20 µM was 1.19.

For the compound `NC(=O)C1CCCN(c2nccc(-c3ccc4ccccc4c3)n2)C1` (centres unmarked) [1-[4-(2-naphthyl)pyrimidin-2-yl]piperidine-3-carboxamide], the “A = MAX FOLD Induction/DMSO CONTROL” value is given as 2.230 fold. For the same compound, under “Homo sapiens, U2OS”, a half-maximal response (EC50) required 1.27 µM, the fold induction at 2 µM amounted to 2.17 and the fold induction at 20 µM is 2.7.

On to `O=CC1CCN(c2nccc(-c3ccc4ccccc4c3)n2)CC1` [1-[4-(2-naphthyl)pyrimidin-2-yl]piperidine-4-carbaldehyde], for which, for the setting “Homo sapiens, U2OS”, the fold induction at 2 µM is 1.51 and the fold induction at 20 µM came out at 0.25.

As to `N#CC1CCN(c2nccc(-c3ccc4ccccc4c3)n2)CC1` [1-[4-(2-naphthyl)pyrimidin-2-yl]piperidine-4-carbonitrile], the “A = MAX FOLD Induction/DMSO CONTROL” value came out at 5.015 fold. For the same compound, under “Homo sapiens, U2OS”, the concentration for a half-maximal effect (EC50) stood at 1.07 µM and the fold induction at 2 µM was 2.79.

Take `NC(=S)C1CCN(c2nccc(-c3ccc4ccccc4c3)n2)CC1` [1-[4-(2-naphthyl)pyrimidin-2-yl]piperidine-4-carbothioamide]: the “A = MAX FOLD Induction/DMSO CONTROL” value is 2.070 fold. Moreover, where the note is “Homo sapiens, U2OS”, the fold induction at 2 µM came out at 1.74 and the fold induction at 20 µM came out at 1.99.

Turning to `NC(=O)C1CCN(c2nccc(-c3ccc4ccccc4c3)n2)CC1` [1-[4-(2-naphthyl)pyrimidin-2-yl]piperidine-4-carboxamide], the “A = MAX FOLD Induction/DMSO CONTROL” value turned out to be 1.660 fold. Besides, for the setting “Homo sapiens, U2OS”, the fold induction at 2 µM stood at 1.62 and the fold induction at 20 µM turned out to be 1.15.

With `O=C(O)C1CCN(c2nccc(-c3ccc4ccccc4c3)n2)CC1` [1-[4-(2-naphthyl)pyrimidin-2-yl]piperidine-4-carboxylic acid], under “Homo sapiens, U2OS”, the fold induction at 2 µM is 1.78 and the fold induction at 20 µM came to 0.57.

In the case of `Cc1ccc(S(=O)(=O)N2CCCN(c3nccc(-c4ccc5ccccc5c4)n3)CC2)cc1` [1-[(4-methylphenyl)sulfonyl]-4-[4-(2-naphthyl)pyrimidin-2-yl]-1,4-diazepane], the fold induction at 2 µM (Homo sapiens, U2OS) was found to be 1.76.

Turning to `NC[C@H]1CC[C@H](c2nccc(-c3ccc4ccccc4c3)n2)CC1` [1-[trans-4-(4-naphthalen-2-ylpyrimidin-2-yl)cyclohexyl]methanamine], where the note is “Homo sapiens, U2OS”, the fold induction at 2 µM turned out to be 3.5.

Take `CC(=O)N1CCCN(c2nccc(-c3ccc4ccccc4c3)n2)CC1` [1-acetyl-4-[4-(2-naphthyl)pyrimidin-2-yl]-1,4-diazepane]: the “A = MAX FOLD Induction/DMSO CONTROL” value worked out at 1.757 fold. For the setting “Homo sapiens, U2OS”, the 50% effective concentration (EC50) came out at 7.3 µM, the fold induction at 2 µM is 1.46 and the fold induction at 20 µM was determined as 3.21.

For the compound `O=C(c1ccccc1)N1CCCN(c2nccc(-c3ccc4ccccc4c3)n2)CC1` [1-benzoyl-4-[4-(2-naphthyl)pyrimidin-2-yl]-1,4-diazepane], where the note is “Homo sapiens, U2OS”, the fold induction at 2 µM worked out at 1.06 and the fold induction at 20 µM came out at 0.35.
